Experimental data: patent US7094799B2, “Polymorphs of bicifadine hydrochloride” (DOV Pharmaceutical, Inc., priority 2002, dated 2006)
Structures can show the parent of a compound that is named as a salt.

Tests used:
Format in all cases: physicochemical
[1] = Thermodynamic stability of polymorphic forms; settings: form B compared with form A; hydrochloride
[2] = Solubility in organic solvents; settings: room temperature; become soluble when heated
Experimental: However, they become soluble when heated. In accordance with this conversion, the polymorph form A crystals of bicifadine hydrochloride are mixed with an organic solvent, having a boiling point of at least 50° C. to form a slurry. In carrying out this conversion any conventional organic solvent having a boiling point of at least 50° C. can be utilized. The slurry is then heated to a temperature at which said slurry is a clear solution, and this solution is cooled to a temperature of at most about 35° C., preferably between about 0° C. to about 20° C. The cooled solution is maintained at a temperature of at most about 35° C. for a period of time sufficient to allow said polymorph B to form as a pure crystalline form free from the presence of the polymorph form A. If desired, cooling can be carried out with stirring. During cooling the mixture should be monitored to allow sufficient time for crystalline polymorph B to form from the mixture.

[3] = Stability of the polymorphic form on grinding (Retsch Mixer Mill, XRPD analysis); settings: Retsch Mixer Mill MM 200, stainless steel ball, 30/s, 5-minute intervals, total of 20 minutes; hydrochloride
Experimental: The X-ray powder diffraction (XRPD) analyses of polymorphic forms A and B of racemic bicifadine hydrochloride were performed with a Shimadzu XRD-6000 X-ray powder diffractometer using Cu Kα radiation. The bicifadine was loaded onto the machine as a crystalline powder. The instrument was equipped with a fine focus X-ray tube. The tube voltage and amperage were set to 40 kV and 40 mA, respectively. The divergence and scattering slits were set at 1° and the receiving slit was set at 0.15 mm. Diffracted radiation was detected by a NaI scintillation detector. A theta-two theta continuous scan at 3°/min (0.4 sec/0.02° step) from 2.5 to 40°2θ was used. A silicon standard was analyzed to check the instrument alignment. Data were collected and analyzed using XRD-6000 v. 4.1.
Form A bicifadine hydrochloride (207 mg) was charged to a small stainless steel cylinder. A stainless steel ball was added, the cylinder capped, and the unit shaken on a Retsch Mixer Mill (Type MM 200) at 5-minute intervals at a frequency of 30/s for a total of 20 minutes. The milled material was then removed and analyzed by XRPD.
Form B bicifadine hydrochloride (111 mg) was charged to a small stainless steel cylinder. […] The milled material was then removed and analyzed by XRPD.

SMILES | thermodynamic stability of crystal form [1] | solubility in organic solvents [2] | polymorphic form after grinding (XRPD) [3]
Cc1ccc(C23CNCC2C3)cc1 (racemic) [Form A bicifadine hydrochloride, (±)-1-(4-methylphenyl)-3-azabicyclo[3.1.0]-hexane hydrochloride] | not the most thermodynamically stable polymorphic form | poorly soluble | partial conversion to form B
Cc1ccc(C23CNCC2C3)cc1 (racemic) [Form B bicifadine hydrochloride, (±)-1-(4-methylphenyl)-3-azabicyclo[3.1.0]-hexane hydrochloride] | more thermodynamically stable |  | remained form B
